Results on seven compounds are retold here after the NIST ThermoML archive (doi:10.1016/j.jct.2004.09.014).

Each structure is given as a SMILES string. ± gives the expanded uncertainty stated by the source.

For data set [1] the following is noted: 101.3 kPa, Liquid.
Data set [2] can be described thus: xn = mol fraction of the nth substance listed. The conditions noted are these: 101.3 kPa, Liquid.

For the compound `COCCOCCO` [2-(2-methoxyethoxy)ethanol], the mass density in data set [1] (293.15 K) worked out at 1020.8 ± 1.4 kg/m3; in data set [1] (298.15 K) it was 1016.4 ± 1.4 kg/m3; in data set [1] (303.15 K), 1011.83 ± 1.5 kg/m3; in data set [1] (308.15 K), 1007.69 ± 1.5 kg/m3; in data set [1] (313.15 K), 1003.22 ± 1.5 kg/m3.

`COCCOCCOCCO` [2-[2-(2-methoxyethoxy)ethoxy]ethanol]: the mass density in data set [1] (293.15 K) is 1047.29 ± 1.9 kg/m3; in data set [1] (298.15 K) it was 1042.97 ± 1.9 kg/m3; in data set [1] (303.15 K), 1038.65 ± 1.9 kg/m3; in data set [1] (308.15 K) it was 1034.33 ± 1.9 kg/m3; in data set [1] (313.15 K) it was 1030.01 ± 2 kg/m3.

Consider `CCOC(C)(C)C` [2-ethoxy-2-methylpropane], for which the mass density in data set [1] (293.15 K) is 741.11 ± 0.61 kg/m3; in data set [1] (298.15 K), 735.59 ± 0.65 kg/m3; in data set [1] (303.15 K), 730.85 ± 0.69 kg/m3; in data set [1] (308.15 K), 725.98 ± 0.73 kg/m3; in data set [1] (313.15 K) it was 720.69 ± 0.77 kg/m3.

As to `CCOC(C)(C)C` [2-ethoxy-2-methylpropane] + COCCOCCO, the mass density in data set [2] (293.15 K, x1 = 1) is on record as 741.11 ± 0.61 kg/m3; in data set [2] (298.15 K, x1 = 1) it was 735.59 ± 0.65 kg/m3; in data set [2] (303.15 K, x1 = 1), 730.85 ± 0.69 kg/m3; in data set [2] (308.15 K, x1 = 1) it was 725.98 ± 0.73 kg/m3; in data set [2] (313.15 K, x1 = 1), 720.69 ± 0.77 kg/m3.

As for `CCOC(C)(C)C` [2-ethoxy-2-methylpropane] + COCCOCCOCCO, the mass density in data set [2] (293.15 K, x1 = 1) worked out at 741.11 ± 0.61 kg/m3; in data set [2] (298.15 K, x1 = 1), 735.59 ± 0.65 kg/m3; in data set [2] (303.15 K, x1 = 1), 730.85 ± 0.69 kg/m3; in data set [2] (308.15 K, x1 = 1), 725.98 ± 0.73 kg/m3; in data set [2] (313.15 K, x1 = 1), 720.69 ± 0.77 kg/m3.

Take `COCCO` [2-methoxyethan-1-ol]: the mass density in data set [1] (293.15 K) turned out to be 964.88 ± 1 kg/m3; in data set [1] (298.15 K) it was 960.29 ± 1.1 kg/m3; in data set [1] (303.15 K), 955.76 ± 1.1 kg/m3; in data set [1] (308.15 K), 951.1 ± 1.1 kg/m3; in data set [1] (313.15 K), 946.54 ± 1.1 kg/m3.

In the case of `COCCO` [2-methoxyethan-1-ol] + CCOC(C)(C)C, the mass density in data set [2] (293.15 K, x2 = 0) is 964.88 ± 1 kg/m3; in data set [2] (298.15 K, x2 = 0), 960.29 ± 1.1 kg/m3; in data set [2] (303.15 K, x2 = 0), 955.76 ± 1.1 kg/m3; in data set [2] (308.15 K, x2 = 0) it was 951.1 ± 1.1 kg/m3; in data set [2] (313.15 K, x2 = 0) it was 946.54 ± 1.1 kg/m3.
